Source: patent US12479847B2 (DANA-FARBER CANCER INSTITUTE, INC., priority 2019, dated 2025)

Assays:
Test in all cases: KINOMEscan (ScanMAX) kinase profiling
Assay type in all cases: binding
panel of 468 kinases [1] = biological target: T1, panel of 468 kinases (Homo sapiens, UniProt O14578); conditions: CIT; 1 μM; read-out: % control
T1 construct: purchased KINOMEscan (ScanMAX) service

panel of 468 kinases [2] = biological target: T2, panel of 468 kinases (Homo sapiens, UniProt P00519, E255K); conditions: ABL1(E255K)-phosphorylated; 1 μM; read-out: % control
T2 construct: purchased KINOMEscan (ScanMAX) service
T2 sequence (P00519 whole entry E255K): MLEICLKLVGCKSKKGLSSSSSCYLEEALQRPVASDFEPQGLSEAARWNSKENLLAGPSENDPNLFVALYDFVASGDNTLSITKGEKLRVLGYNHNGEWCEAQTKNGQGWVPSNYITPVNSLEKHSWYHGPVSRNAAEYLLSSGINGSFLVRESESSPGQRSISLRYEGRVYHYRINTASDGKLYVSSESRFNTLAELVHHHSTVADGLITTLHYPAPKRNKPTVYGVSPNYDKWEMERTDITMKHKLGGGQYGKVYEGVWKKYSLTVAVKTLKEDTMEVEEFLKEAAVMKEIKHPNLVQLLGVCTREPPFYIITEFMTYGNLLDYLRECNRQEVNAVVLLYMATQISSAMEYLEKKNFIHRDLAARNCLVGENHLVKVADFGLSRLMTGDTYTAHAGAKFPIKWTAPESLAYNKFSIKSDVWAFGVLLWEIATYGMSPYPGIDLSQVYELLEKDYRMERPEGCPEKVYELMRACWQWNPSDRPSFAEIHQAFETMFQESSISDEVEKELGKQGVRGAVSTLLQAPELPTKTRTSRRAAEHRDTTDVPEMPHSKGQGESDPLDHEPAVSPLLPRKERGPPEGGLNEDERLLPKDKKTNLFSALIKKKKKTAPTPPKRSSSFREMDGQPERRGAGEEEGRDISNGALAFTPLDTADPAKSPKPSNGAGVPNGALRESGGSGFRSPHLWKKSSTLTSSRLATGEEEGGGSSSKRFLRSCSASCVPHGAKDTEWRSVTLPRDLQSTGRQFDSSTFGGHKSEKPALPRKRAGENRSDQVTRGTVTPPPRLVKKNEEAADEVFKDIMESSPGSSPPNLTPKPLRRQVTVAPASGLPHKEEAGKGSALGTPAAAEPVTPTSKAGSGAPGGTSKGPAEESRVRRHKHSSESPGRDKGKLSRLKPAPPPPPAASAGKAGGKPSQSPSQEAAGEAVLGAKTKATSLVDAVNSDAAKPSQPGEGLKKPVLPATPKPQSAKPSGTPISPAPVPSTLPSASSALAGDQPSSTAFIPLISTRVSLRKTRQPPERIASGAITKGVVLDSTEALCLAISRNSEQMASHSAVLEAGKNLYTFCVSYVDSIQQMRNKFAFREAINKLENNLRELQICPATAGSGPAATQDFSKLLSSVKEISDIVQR

panel of 468 kinases [3] = biological target: T3, panel of 468 kinases (Homo sapiens, UniProt P21709); conditions: EPHA1; 1 μM; read-out: % control
T3 construct: purchased KINOMEscan (ScanMAX) service
T3 sequence (P21709 26-976): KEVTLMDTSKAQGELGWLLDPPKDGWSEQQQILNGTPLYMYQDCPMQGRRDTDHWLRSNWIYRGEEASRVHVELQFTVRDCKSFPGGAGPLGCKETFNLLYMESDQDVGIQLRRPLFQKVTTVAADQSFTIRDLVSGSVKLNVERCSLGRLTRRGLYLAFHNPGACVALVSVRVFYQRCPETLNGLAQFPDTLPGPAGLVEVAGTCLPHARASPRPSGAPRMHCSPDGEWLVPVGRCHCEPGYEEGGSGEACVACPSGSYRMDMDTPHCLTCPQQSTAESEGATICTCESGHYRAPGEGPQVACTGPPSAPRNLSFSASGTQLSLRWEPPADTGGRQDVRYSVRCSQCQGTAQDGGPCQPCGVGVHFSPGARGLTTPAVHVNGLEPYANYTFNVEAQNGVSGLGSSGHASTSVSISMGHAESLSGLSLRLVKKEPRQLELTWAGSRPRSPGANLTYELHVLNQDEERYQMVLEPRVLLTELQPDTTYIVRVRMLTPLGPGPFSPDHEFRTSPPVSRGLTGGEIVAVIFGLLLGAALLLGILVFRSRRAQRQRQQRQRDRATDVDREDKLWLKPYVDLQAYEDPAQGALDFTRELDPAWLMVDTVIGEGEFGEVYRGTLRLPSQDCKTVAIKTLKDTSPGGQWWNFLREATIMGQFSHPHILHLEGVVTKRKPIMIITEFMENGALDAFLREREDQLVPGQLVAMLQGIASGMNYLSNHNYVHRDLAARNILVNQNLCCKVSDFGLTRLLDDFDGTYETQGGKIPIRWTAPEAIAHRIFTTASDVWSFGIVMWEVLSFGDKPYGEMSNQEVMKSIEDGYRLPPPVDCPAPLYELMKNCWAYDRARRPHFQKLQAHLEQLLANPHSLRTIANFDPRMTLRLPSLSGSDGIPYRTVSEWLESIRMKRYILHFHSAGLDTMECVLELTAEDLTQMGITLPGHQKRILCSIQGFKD

panel of 468 kinases [4] = biological target: T4, panel of 468 kinases (Homo sapiens, UniProt P36888, D835Y); conditions: FLT3(D835Y); 1 μM; read-out: % control
T4 construct: purchased KINOMEscan (ScanMAX) service
T4 sequence (P36888 27-993 D835Y): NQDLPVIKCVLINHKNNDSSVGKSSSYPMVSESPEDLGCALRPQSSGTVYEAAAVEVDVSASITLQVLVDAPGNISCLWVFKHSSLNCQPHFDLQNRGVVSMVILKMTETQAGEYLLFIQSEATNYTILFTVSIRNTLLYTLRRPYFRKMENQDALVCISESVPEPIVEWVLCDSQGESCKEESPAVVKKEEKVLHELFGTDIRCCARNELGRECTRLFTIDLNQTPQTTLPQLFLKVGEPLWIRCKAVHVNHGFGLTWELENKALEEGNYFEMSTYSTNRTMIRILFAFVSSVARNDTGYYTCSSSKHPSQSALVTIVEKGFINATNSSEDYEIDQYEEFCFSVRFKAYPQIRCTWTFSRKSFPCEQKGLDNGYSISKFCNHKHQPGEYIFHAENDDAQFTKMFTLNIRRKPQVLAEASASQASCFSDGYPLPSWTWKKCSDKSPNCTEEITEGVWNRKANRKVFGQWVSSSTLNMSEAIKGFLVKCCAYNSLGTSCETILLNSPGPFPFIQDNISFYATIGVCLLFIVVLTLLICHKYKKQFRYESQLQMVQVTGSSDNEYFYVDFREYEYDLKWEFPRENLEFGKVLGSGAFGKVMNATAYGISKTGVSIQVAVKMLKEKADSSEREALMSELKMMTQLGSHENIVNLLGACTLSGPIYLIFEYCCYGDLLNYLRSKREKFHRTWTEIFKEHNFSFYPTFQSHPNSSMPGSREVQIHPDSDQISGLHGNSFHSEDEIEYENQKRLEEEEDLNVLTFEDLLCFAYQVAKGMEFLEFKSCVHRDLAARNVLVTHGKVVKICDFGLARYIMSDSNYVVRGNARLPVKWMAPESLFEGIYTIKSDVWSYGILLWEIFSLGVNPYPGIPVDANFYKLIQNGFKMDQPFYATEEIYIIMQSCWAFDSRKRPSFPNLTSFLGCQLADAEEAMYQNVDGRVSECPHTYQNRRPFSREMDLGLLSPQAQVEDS

T1 sequence (O14578 whole entry): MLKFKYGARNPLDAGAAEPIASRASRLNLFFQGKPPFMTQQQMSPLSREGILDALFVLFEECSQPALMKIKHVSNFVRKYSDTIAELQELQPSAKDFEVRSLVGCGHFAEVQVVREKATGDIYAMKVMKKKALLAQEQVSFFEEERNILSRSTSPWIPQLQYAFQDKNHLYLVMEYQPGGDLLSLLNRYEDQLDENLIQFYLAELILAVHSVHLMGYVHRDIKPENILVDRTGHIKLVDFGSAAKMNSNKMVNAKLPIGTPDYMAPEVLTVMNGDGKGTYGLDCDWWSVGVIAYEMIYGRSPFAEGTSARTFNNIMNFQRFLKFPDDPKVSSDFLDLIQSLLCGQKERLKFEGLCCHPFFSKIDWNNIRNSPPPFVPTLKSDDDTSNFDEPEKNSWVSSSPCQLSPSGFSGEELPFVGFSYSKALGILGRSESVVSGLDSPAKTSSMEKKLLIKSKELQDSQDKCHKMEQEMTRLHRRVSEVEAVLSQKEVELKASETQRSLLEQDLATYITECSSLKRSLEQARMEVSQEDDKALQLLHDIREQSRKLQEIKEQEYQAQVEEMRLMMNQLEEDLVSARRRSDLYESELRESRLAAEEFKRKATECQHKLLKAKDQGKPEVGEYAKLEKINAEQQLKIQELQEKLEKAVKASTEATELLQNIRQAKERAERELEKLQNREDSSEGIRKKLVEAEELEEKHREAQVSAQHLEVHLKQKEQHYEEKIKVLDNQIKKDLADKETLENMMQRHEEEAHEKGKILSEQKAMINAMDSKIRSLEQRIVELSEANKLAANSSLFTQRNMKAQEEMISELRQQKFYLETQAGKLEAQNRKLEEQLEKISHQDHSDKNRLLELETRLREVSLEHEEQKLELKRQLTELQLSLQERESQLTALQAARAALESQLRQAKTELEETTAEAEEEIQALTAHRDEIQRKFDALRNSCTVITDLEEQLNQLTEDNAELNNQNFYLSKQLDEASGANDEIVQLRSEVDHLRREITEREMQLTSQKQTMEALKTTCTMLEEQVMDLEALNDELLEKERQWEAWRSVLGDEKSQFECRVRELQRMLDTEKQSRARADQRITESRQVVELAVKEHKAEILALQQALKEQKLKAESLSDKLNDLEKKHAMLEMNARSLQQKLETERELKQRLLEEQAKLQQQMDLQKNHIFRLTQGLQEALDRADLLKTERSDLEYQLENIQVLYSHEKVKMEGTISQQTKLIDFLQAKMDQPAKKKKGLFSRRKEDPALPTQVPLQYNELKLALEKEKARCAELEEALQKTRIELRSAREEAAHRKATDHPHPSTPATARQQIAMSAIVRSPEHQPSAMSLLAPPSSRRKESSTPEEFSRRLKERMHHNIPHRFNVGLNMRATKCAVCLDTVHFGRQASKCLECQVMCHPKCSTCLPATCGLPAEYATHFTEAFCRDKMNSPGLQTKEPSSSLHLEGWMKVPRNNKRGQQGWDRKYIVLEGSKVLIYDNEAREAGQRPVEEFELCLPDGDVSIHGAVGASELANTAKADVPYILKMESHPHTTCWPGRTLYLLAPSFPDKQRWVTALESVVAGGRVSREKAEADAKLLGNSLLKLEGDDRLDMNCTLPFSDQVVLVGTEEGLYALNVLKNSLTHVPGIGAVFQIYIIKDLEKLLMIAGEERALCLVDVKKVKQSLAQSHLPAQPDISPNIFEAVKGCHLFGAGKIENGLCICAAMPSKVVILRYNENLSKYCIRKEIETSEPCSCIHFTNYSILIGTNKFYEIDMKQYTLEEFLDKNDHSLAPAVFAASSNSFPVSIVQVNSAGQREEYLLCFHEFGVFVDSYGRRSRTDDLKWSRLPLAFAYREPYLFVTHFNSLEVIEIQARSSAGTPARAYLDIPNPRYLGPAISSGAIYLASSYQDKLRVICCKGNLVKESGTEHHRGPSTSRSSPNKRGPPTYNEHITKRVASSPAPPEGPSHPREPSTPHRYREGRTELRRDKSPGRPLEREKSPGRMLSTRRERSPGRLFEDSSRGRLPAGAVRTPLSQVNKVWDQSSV

## CNc1nc(Nc2ccc(S(=O)(=O)N3CCC(N4CCOCC4)CC3)cc2OC)nc2[nH]cc(Cl)c12 [Compound 12, 5-chloro-N2-(2-methoxy-4-((4-morpholinopiperidin-1-yl)sulfonyl)phenyl)-N4-methyl-7H-pyrrolo[2,3-d]pyrimidine-2,4-diamine]
Panel of 468 kinases [1]
  remaining binding at 1 µM: 85%
Panel of 468 kinases [2]
  remaining binding at 1 µM: 92%
Panel of 468 kinases [3]
  remaining binding at 1 µM: 100%
Panel of 468 kinases [4]
  remaining binding at 1 µM: 96%

## CNc1nc(Nc2ccc(C(=O)N3CCC(N4CCOCC4)CC3)c3c2OCO3)nc2[nH]cc(Cl)c12 [Compound 75, (7-((5-chloro-4-(methylamino)-7H-pyrrolo[2,3-d]pyrimidin-2-yl)amino)benzo[d][1,3]dioxol-4-yl)(4-morpholinopiperidin-1-yl)methanone]
Panel of 468 kinases [1]
  remaining binding at 1 µM: 35%
Panel of 468 kinases [2]
  remaining binding at 1 µM: 100%
Panel of 468 kinases [3]
  remaining binding at 1 µM: 100%
Panel of 468 kinases [4]
  remaining binding at 1 µM: 14%

## CNc1nc(Nc2ccc(P3(=O)CCN(C4CCOCC4)CC3)cc2OC)nc2[nH]cc(Cl)c12 [Compound 77, 4-(4-((5-chloro-4-(methylamino)-7H-pyrrolo[2,3-d]pyrimidin-2-yl)amino)-3-methoxyphenyl)-1-(tetrahydro-2H-pyran-4-yl)-1,4-azaphosphinane 4-oxide]
Panel of 468 kinases [1]
  remaining binding at 1 µM: 93%
Panel of 468 kinases [2]
  remaining binding at 1 µM: 100%
Panel of 468 kinases [3]
  remaining binding at 1 µM: 100%
Panel of 468 kinases [4]
  remaining binding at 1 µM: 47%
